Reference: patent US20090226455A1, “COMBINATION THERAPY WITH C-MET AND HER ANTAGONISTS” (Genentech, Inc., priority 2008, published 2009)

Assays:
EBC-1 shMet-4.5 tumors = test: EBC-1 shMet-4.5 NSCLC xenograft model, tumor growth inhibition; type: in vivo, nude mice (nu/nu); conditions: compared to sucrose control at day 29; pertuzumab 5 mg/kg IP once a week; Dox 1 mg/mL in 5% sucrose drinking water (induces c-met shRNA knockdown)
Description: Control antibodies mouse IgG2a isotype 10D9-1E11-1F12 (anti-Ragweed) antibody and the human IgG1 isotype hu5B6 (anti-gD) antibody were obtained from the Antibody Engineering Department at Genentech, Inc., in a clear liquid form and were diluted in 1×PBS. Doxycycline (Dox) was prepared fresh at 0.5 or 1 mg/mL in 5% sucrose water and was regularly exchanged every 3 days. In Dox studies, control animals were given 5% sucrose water that was exchanged every 3 days. Materials were stored in a refrigerator set to maintain a temperature range of 4° C. to 8° C. […]
To prepare cells for inoculation into mice, cells were trypsinized, washed with ten milliliters of sterile 1× phosphate buffered saline (PBS). A subset of cells was counted by trypan blue exclusion and the remainder of cells was resuspended in 100 μl of sterile 1× PBS to a concentration of 5×10^7 cells per milliliter. […] Tumors were monitored until they reached a mean volume of 200 mm^3.
Mice in Group 1 were treated with anti-Ragweed control antibody (5 mg/kg, IP, once a week for 5 weeks) and given 5% sucrose drinking water. […] Tumor volumes were monitored through day 29. […]
Tumor inhibition was plotted using KaleidaGraph 3.6 (Synergy Software; Reading, Pa.). Percent growth inhibition (% Inh) was calculated as follows: […]
Tumor incidence was determined by the number of measurable tumors in each group at the end of study. […]

advanced ovarian cancer = conditions: 3 subjects with advanced ovarian cancer treated; one subject; cited from earlier work

Compound: C[C@H]1c2cccc(O)c2C(=O)C2=C(O)[C@]3(O)C(=O)C(C(N)=O)=C(O)[C@@H](N(C)C)[C@@H]3[C@@H](O)[C@@H]21 [Dox, Doxycycline, reference compound]
- tumor inhibition (reduction in tumor growth) (EBC-1 shMet-4.5 tumors): 54%

Compound: pertuzumab: humanized antibody that inhibits the dimerization of HER2 with other HER receptors; light and heavy chain SEQ ID NOs 15 and 16
- tumor inhibition (reduction in tumor growth) (EBC-1 shMet-4.5 tumors): 43.6%
- clinical response (advanced ovarian cancer): durable partial response
